According to patent US7897574B2, “Pharmaceutical composition for treating haemorrhagic shock and its consecutive symptoms” (Ikaria Development Subsidiary Two LLC, priority 2005, dated 2011):
One block for each substance: values may come before it.

Tests used:
[1] = molecular target: T1, recombinant human VE-cadherin FC fusion protein (Homo sapiens, UniProt P33151); assay: ELISA: binding of FLAG-tagged peptide to coated VE-cadherin; conditions: VE-cadherin coated 8 nM/ml
T1 construct: purchased R&D Systems, Minneapolis
T1 sequence (P33151 with tags, fused parts or gaps limits assumed): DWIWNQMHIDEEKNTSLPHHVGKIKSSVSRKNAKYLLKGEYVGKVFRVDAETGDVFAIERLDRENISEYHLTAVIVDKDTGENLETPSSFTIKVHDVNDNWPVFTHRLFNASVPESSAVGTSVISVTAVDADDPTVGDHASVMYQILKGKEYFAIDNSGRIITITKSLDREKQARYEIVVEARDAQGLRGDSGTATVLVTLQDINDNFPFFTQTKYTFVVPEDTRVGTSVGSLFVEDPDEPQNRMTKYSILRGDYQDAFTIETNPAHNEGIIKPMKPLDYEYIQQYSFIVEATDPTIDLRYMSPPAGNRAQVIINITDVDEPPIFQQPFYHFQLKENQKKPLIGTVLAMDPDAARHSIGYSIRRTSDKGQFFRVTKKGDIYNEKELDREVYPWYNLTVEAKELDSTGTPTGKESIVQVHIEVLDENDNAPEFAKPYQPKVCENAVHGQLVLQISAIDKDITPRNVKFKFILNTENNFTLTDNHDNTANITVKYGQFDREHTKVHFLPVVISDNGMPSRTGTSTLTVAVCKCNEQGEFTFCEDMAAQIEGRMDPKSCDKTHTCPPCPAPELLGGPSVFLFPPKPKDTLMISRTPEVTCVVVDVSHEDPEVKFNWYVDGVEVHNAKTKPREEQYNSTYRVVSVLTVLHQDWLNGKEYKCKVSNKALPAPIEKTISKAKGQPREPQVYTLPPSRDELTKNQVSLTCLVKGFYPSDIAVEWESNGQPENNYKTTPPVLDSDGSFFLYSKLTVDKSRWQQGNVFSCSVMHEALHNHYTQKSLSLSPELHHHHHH
Description: We have developed a modified ELISA working with the same principles described by others, but the purpose of the herein described ELISA is not to quantify fibrin degradation products, but to search for proteins, peptides or compounds which interfere with the binding of the Bbeta15-42 sequence and the VE-cadherin. […] Into this system one can introduce any other additional substance and measure if this substance inhibits VE-cadherin/Bbeta15-42 binding.
In detail, 96 well protein immobilizer plates (Exiqon, Vedbaek, DK) were coated with recombinant human VE-cadherin FC fusion protein (8 nM/ml; R&D Systems, Minneapolis) in PBS and were left overnight at 4° C. Plates were then washed and incubated with peptide Bβ15-42 ([…]) tagged with a FLAG-sequence (DYKDDDDK) at the C-terminus of the peptide or with a FLAG-tagged random peptide ([…]) at a concentration of 0-80 μMol/ml. After washing, bound FLAG-tagged peptide was detected by incubation with a peroxidase-labelled anti-FLAG antibody (Sigma, St. Louis, USA) and chromogenic substrate. Optical density was determined by an ELISA plate reader set at a wavelength of 450 nm. Data represent the mean of three independent experiments, each performed in triplicates.

[2] = tested on: human umbilical vein endothelial cells (HUVEC); assay: Inhibition of the release of interleukin-6 from endothelial cells; format: cell-based; conditions: 4 hrs
Description: In addition we have identified a specific assay for the determination of the claimed activity of the peptides, which consists of measurement of the inhibition of the release of interleukin-6 from endothelial cells. […] This assay is therefore also part of the invention.
96-well cell culture plates were coated with 1% gelatine. Into each well, approx. 23,000 human umbilical vein endothelial cells (HUVEC) in 200 μl of medium were pipetted. The HUVECs were taken from passage 4 form a pool of four different donors. The medium used for dilution was standard medium with 10% FCS, ECGS in Iscove's modified Dulbecco medium (Petzelbauer et al., J Immunol. 151:5062-5072, 1993). Within approx. 18 hrs at 37° C. in an incubator, a confluent cell monolayer is formed. The supernatant was removed and replaced with medium containing either NDSK-II alone or NDSK-II plus peptide Bβ15Δ([…]).
The total final volume was 200 μl. After 4 hrs of incubation at 37° C. under 5% CO2, the cell culture supernatant was again removed and centrifuged for 10 min at 4° C. at 3000 U/min. The concentration of interleukin-6 (IL-6) was measured using a commercial assay (IL-6 Quantikine Immonuassay (R&D Sytems; Catalog#: D6050; Lot: 231361). Calibration was done according to the standard protocol supplied by the assay manufacturer with various dilutions of recombinant IL-6 and medium. Readings of the optical density were taken at a wavelength of 450 nm with a reference wavelength of 550 nm.

[3] = tested on: Domestic male landrace pigs; assay: Hemorrhagic shock in domestic pigs; format: in vivo, pig
Description: Domestic male landrace pigs weighing 20-35 kg were fed a standard diet and received water ad libitum. All procedures were performed in concurrence with the AAALAC guidelines and according to the Guide for the Care of Laboratory Animals (Department of Health and Human Services, National Institutes of Health, Publication Nr. 86-23). Pigs were premedicated with azaperon (4 mg/kg). The ear vein was cannulated and the anesthetic propofol was applied. The animals were fully instrumented and equlibrated for 1 hr in order to recieve a stable baseline. Subsequently, the animals (n=16) were exsanguinated until a mean arterial pressure of 40 mm Hg was achieved. They were kept at this level constituting a hemorrhagic shock for 1 hr. After this time the lost blood volume was resubstituted with shed blood and salt solutions (cristalloids). In addition the animals received a bolus dose of the peptide Bβ15-42 (n=8) or a random sequence peptide (n=8) in a dose of […] each as a single intravenous bolus. During the ensuing reperfusion period over the duration of 5 hrs, Horrowitz index (measuring blood oxigenation), PEEP (positive end-expiratory pressure in mm Hg) and cardiac ejection volume were determined at various timepoints.
In the following tables the following timepoints were used:
• Timepoint 1: 1 hr before hemorrhagic shock • Timepoint 2: during hemorrhagic shock • Timepoint 3: 1 hr after the start of reperfusion • Timepoint 4: 3 hrs after the start of reperfusion • Timepoint 5: 5 hrs after the start of reperfusion

[4] = in vivo, ischemia/reperfusion; WO 02/48180; cited from earlier work
[5] = Timepoint 1: 1 hr before hemorrhagic shock (before dosing)
[6] = Timepoint 2: during hemorrhagic shock (before dosing)
[7] = Timepoint 3: 1 hr after the start of reperfusion, 2.4 mh/kg single intravenous bolus
[8] = Timepoint 4: 3 hrs after the start of reperfusion, 2.4 mh/kg single intravenous bolus
[9] = Timepoint 5: 5 hrs after the start of reperfusion, 2.4 mh/kg single intravenous bolus

binding to VE-cadherin, optical density (450 nm), mean ([1]; FLAG-tagged peptide 0.23 μM/ml): 0.01
binding to VE-cadherin, optical density (450 nm), mean ([1]; FLAG-tagged peptide 0.7 μM/ml): 0.02
binding to VE-cadherin, optical density (450 nm), mean ([1]; FLAG-tagged peptide 2.3 μM/ml): 0.08
binding to VE-cadherin, optical density (450 nm), mean ([1]; FLAG-tagged peptide 7 μM/ml): 0.33
binding to VE-cadherin, optical density (450 nm), mean ([1]; FLAG-tagged peptide 14 μM/ml): 0.92
binding to VE-cadherin, optical density (450 nm), mean ([1]; FLAG-tagged peptide 21 μM/ml): 1.3
binding to VE-cadherin, optical density (450 nm), mean ([1]; FLAG-tagged peptide 35 μM/ml): 1.5
binding to VE-cadherin, optical density (450 nm), mean ([1]; FLAG-tagged peptide 46 μM/ml): 1.93
binding to VE-cadherin, optical density (450 nm), mean ([1]; FLAG-tagged peptide 70 μM/ml): 2.1
Substance: 15-42 FLAG: peptide Bβ15-42 (GHRPLDKKREEAPSLRPAPPPISGGGYR) tagged with a FLAG-sequence (DYKDDDDK) at the C-terminus (GHRPLDKKREEAPSLRPAPPPISGGGYRDYKDDDDK)

Substance: GHRPLDKKREEAPSLRPAPPPISGGGYR [peptide Bβ15-42, peptide matching amino acids 15-42 of the Bβ chain of human fibrin]
IL-6 concentration ([2]; 0.3 μg/ml NDSK-II + 10 μg/ml peptide): 15 ± 2 pg/mL
IL-6 concentration ([2]; 3 μg/ml NDSK-II + 10 μg/ml peptide): 12 ± 3(p < 0.05 cmpd with pg/ml
IL-6 concentration ([2]; 30 μg/ml NDSK-II + 10 μg/ml peptide): 13 ± 1(p < 0.05 cmpd with pg/ml
EV (cardiac ejection volume) [3, 5]: 44 ± 2 mL
Horrowitz Index (blood oxigenation) [3, 5]: 465 +/− 20
PEEP (positive end-expiratory pressure) [3, 5]: 4 +/− 0.1 mmHg
EV (cardiac ejection volume) [3, 6]: 6 ± 1 mL
Horrowitz Index (blood oxigenation) [3, 6]: 450 +/− 20
PEEP (positive end-expiratory pressure) [3, 6]: 4 +/− 0.1 mmHg
EV (cardiac ejection volume) [3, 7]: 31 ± 4 mL
Horrowitz Index (blood oxigenation) [3, 7]: 420 +/− 10
PEEP (positive end-expiratory pressure) [3, 7]: 4.1 +/− 0.2 mmHg
EV (cardiac ejection volume) [3, 8]: 32 ± 3 mL
Horrowitz Index (blood oxigenation) [3, 8]: 410 +/− 20
PEEP (positive end-expiratory pressure) [3, 8]: 4.2 +/− 0.3 mmHg
EV (cardiac ejection volume) [3, 9]: 37 ± 4 mL
Horrowitz Index (blood oxigenation) [3, 9]: 420 +/− 30
PEEP (positive end-expiratory pressure) [3, 9]: 4.3 +/− 0.2 mmHg
myocardial infarct size (in words) [4]: reduces myocardial infarct sizes
